From patent publication US8124382B2, “Methods, microarray, and kits for detection of drug resistance genes in gram-negative bacteria” (CapitalBio Corporation, priority 2006, dated 2012)

Experiments:
Experiment in all cases: in vitro antimicrobial susceptibility test (MIC, CLSI standard method)
E. cloacae TR3104 = type: cell-based; settings: strain TR3104; for The in vitro antimicrobial susceptibility test/MIC: CLA at fixed concentration 4 μg/ml in combinations
Procedure: (§1) Three gram-negative bacteria in Table 3 were tested. The in vitro antimicrobial susceptibility result was obtained according to the standard method of Clinical and Laboratory Standards Institute (CLSI).
(§2) The resistance genes in E. cloacae TR3104 were detected using the microarray in FIG. 1 according to the method in example 1. […] Thus the kit for detection of resistance genes in gram-negative bacteria in the present invention can be used to specifically detect the resistance genes in the prevalent gram-negative bacteria E. cloacae.

K. pneumoniae BJ-35 = type: cell-based, Klebsiella pneumoniae; settings: for The in vitro antimicrobial susceptibility test/MIC: strain BJ-35 (K. pneumoniae), CLA at fixed concentration 4 μg/ml in combinations
Procedure: as §1

K. pneumoniae E298 = type: cell-based, Klebsiella pneumoniae; settings: for The in vitro antimicrobial susceptibility test/MIC: strain E298 (K. pneumoniae), CLA at fixed concentration 4 μg/ml in combinations
Procedure: as §1

K. pneumoniae BJ-7 = type: cell-based, Klebsiella pneumoniae; settings: for The in vitro antimicrobial susceptibility test/MIC: strain BJ-7 (K. pneumoniae), CLA at fixed concentration 4 μg/ml in combinations
Procedure: as §1

E. coli Z302 = type: cell-based; settings: for The in vitro antimicrobial susceptibility test/MIC: strain Z302 (E. coli), CLA at fixed concentration 4 μg/ml in combinations
Procedure: as §1
as §2, with “coli Z302” for “cloacae TR3104”, “Example” for “example”, “coli.” for “cloacae.”

[1] = strain BJ-35, shown by microarray-detected genes, consistent with MIC results
[2] = strain E298, shown by microarray-detected genes, consistent with MIC results
[3] = strain BJ-7, shown by microarray-detected genes, consistent with MIC results
[4] = strain Z302, shown by microarray-detected genes, consistent with MIC results

Row | The in vitro antimicrobial susceptibility test/MIC (E. cloacae TR3104) | The in vitro antimicrobial susceptibility test/MIC (K. pneumoniae E298) | The in vitro antimicrobial susceptibility test/MIC (E. coli Z302) | Structure (SMILES) | The in vitro antimicrobial susceptibility test/MIC (K. pneumoniae BJ-35) | The in vitro antimicrobial susceptibility test/MIC (K. pneumoniae BJ-7) | resistance or susceptibility of the isolate (E. cloacae TR3104; shown by microarray-detected genes, consistent with MIC results) | resistance or susceptibility of the isolate (K. pneumoniae BJ-35; [1]) | resistance or susceptibility of the isolate (K. pneumoniae E298; [2]) | resistance or susceptibility of the isolate (K. pneumoniae BJ-7; [3]) | resistance or susceptibility of the isolate (E. coli Z302; [4]) | inhibition of the isolate's resistance by clavulanate (K. pneumoniae BJ-35; [1]) | inhibition of the isolate's resistance by clavulanate (K. pneumoniae E298; [2]) | inhibition of the isolate's resistance by clavulanate (K. pneumoniae BJ-7; [3]) | inhibition of the isolate's resistance by clavulanate (E. coli Z302; [4])
1 | 4 µg/mL | ≧128 μg/ml | ≧128 μg/ml | CC(C)(O/N=C(\C(=O)N[C@@H]1C(=O)N2C(C(=O)[O-])=C(C[n+]3ccccc3)CS[C@H]12)c1csc(N)n1)C(=O)O [CAZ, ceftazidime] | 4 µg/mL | 32 µg/mL | – | – | – | – | – | – | – | – | –
2 | 64 µg/mL | ≧128 μg/ml | ≧128 μg/ml | CO/N=C(\C(=O)N[C@@H]1C(=O)N2C(C(=O)O)=C(COC(C)=O)CS[C@H]12)c1csc(N)n1 [CTX, cefotaxime] | 8 µg/mL | 64 µg/mL | – | – | – | – | – | – | – | – | –
3 | 4 µg/mL | <0.5 µg/mL | 4 µg/mL | C[C@@H](O)[C@H]1C(=O)N2C(C(=O)O)=C(SCCN=CN)C[C@H]12 [IMP, imipenem] | <0.5 µg/mL | <0.5 µg/mL | – | – | – | – | – | – | – | – | –
4 | – | – | – | O=C(O)[C@H]1/C(=C/CO)O[C@@H]2CC(=O)N21 [clavulanate] | – | – | – | – | – | – | – | inhibited | not inhibited | inhibited | not inhibited

Row | Structure (SMILES) | The in vitro antimicrobial susceptibility test/MIC (E. cloacae TR3104) | The in vitro antimicrobial susceptibility test/MIC (K. pneumoniae E298) | The in vitro antimicrobial susceptibility test/MIC (E. coli Z302) | The in vitro antimicrobial susceptibility test/MIC (K. pneumoniae BJ-35) | The in vitro antimicrobial susceptibility test/MIC (K. pneumoniae BJ-7) | resistance or susceptibility of the isolate (E. cloacae TR3104; shown by microarray-detected genes, consistent with MIC results) | resistance or susceptibility of the isolate (K. pneumoniae BJ-35; [1]) | resistance or susceptibility of the isolate (K. pneumoniae E298; [2]) | resistance or susceptibility of the isolate (K. pneumoniae BJ-7; [3]) | resistance or susceptibility of the isolate (E. coli Z302; [4]) | inhibition of the isolate's resistance by clavulanate (K. pneumoniae BJ-35; [1]) | inhibition of the isolate's resistance by clavulanate (K. pneumoniae E298; [2]) | inhibition of the isolate's resistance by clavulanate (K. pneumoniae BJ-7; [3]) | inhibition of the isolate's resistance by clavulanate (E. coli Z302; [4])
5 | CO[C@@]1(NC(=O)Cc2cccs2)C(=O)N2C(C(=O)O)=C(COC(N)=O)CS[C@@H]21 [FOX, cefoxitin] | ≧256 μg/ml | ≧128 μg/ml | ≧128 μg/ml | 2 µg/mL | 8 µg/mL | resistant | susceptible | resistant | susceptible | resistant | – | – | – | –
